Assay results from ChEMBL document CHEMBL1159164, “Inactivation of serine protease, -chymotrypsin by fluorinated phenylalanine analogues” (Bioorg Med Chem Lett, 1996).

Assays:
Chymotrypsinogen B [1] = target: T1, Chymotrypsinogen B (Homo sapiens, UniProt P17538); experiment: Time dependent loss of inhibitory activity toward alpha-chymotrypsin (1.6 uM concentration) at a pH of 7.8 by incubation method; no inactivation observed.
Chymotrypsinogen B [2] = target: T1, Chymotrypsinogen B; experiment: Irreversible inhibitory activity toward alpha-chymotrypsin (1.6 uM concentration) at a pH of 7.8 by incubation method. reversible competitive inactivation
Chymotrypsinogen B [3] = target: T1, Chymotrypsinogen B; experiment: Reversible inhibitory activity toward alpha-chymotrypsin (5 nM concentration) at a pH of 7.8 by progress curve method; no inactivation observed.
Chymotrypsinogen B [4] = target: T1, Chymotrypsinogen B; experiment: Irreversible inhibitory activity toward alpha-chymotrypsin (1.6 uM concentration) at a pH of 7.8 by incubation method.
Chymotrypsinogen B [5] = target: T1, Chymotrypsinogen B; experiment: Reversible inhibitory activity toward alpha-chymotrypsin (5 nM concentration) at a pH of 7.8 by progress curve method.
Chymotrypsinogen B [6] = target: T1, Chymotrypsinogen B
Chymotrypsinogen B [7] = target: T1, Chymotrypsinogen B; remark: listed apart in the source
Chymotrypsinogen B [8] = target: T1, Chymotrypsinogen B; experiment: Reversible inhibitory activity toward alpha-chymotrypsin (5 nM concentration) at a pH of 7.8 by progress curve method.; no inactivation observed.

T1 sequence (P17538 34-164 limits assumed, other chains not shown): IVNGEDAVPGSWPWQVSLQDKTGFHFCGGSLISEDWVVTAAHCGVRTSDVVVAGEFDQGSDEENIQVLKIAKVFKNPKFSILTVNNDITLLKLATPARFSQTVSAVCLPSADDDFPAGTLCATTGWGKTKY
T1 sequence (P17538 167-263 limits assumed, other chains not shown): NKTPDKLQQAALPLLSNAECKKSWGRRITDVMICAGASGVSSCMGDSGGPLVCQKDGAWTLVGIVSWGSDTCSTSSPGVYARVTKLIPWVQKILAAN

Compound | K obs / 1 (Chymotrypsinogen B [1]) | [I] (Chymotrypsinogen B [2]) [mM] | Ki (Chymotrypsinogen B [5]) [mM] | also measured
C=CC(F)[C@H](Cc1ccccc1)NC(C)=O (some centres not stated) | No inactivation |  |  | Ki (Chymotrypsinogen B [3]): No inactivation; [I] (Chymotrypsinogen B [4]): 9.73 mM
COC(=O)C(F)[C@H](Cc1ccccc1)NC(C)=O (stereo in doubt; syn) [listing 2 of 2 here] |  |  | 19.1 | 
COC(=O)C(F)[C@H](Cc1ccccc1)NC(C)=O (stereo in doubt; anti) [listing 2 of 2 here] |  |  | 6.44 | 
CC(=O)N[C@@H](Cc1ccccc1)C(C)(F)F | No inactivation |  |  | Ki (Chymotrypsinogen B [8]): No inactivation; [I] (Chymotrypsinogen B [4]): 4.85 mM

Continued, in another order:

K obs / 1 (Chymotrypsinogen B [1]) | [I] (Chymotrypsinogen B [2]) [mM] | Ki (Chymotrypsinogen B [5]) [mM] | Compound | also measured
No inactivation | 6.25 |  | COC(=O)C(F)[C@H](Cc1ccccc1)NC(C)=O (stereo in doubt; anti) [listing 1 of 2 here] | 
No inactivation | 4.58 |  | COC(=O)C(F)[C@H](Cc1ccccc1)NC(C)=O (stereo in doubt; syn) [listing 1 of 2 here] | 
 | 6.86 | 0.034 | COC(=O)C(F)(F)[C@H](Cc1ccccc1)NC(C)=O | K obs / 1 (Chymotrypsinogen B [6]): No inactivation
 |  | 0.46 | C=CC(F)(F)[C@H](Cc1ccccc1)NC(C)=O | [I] (Chymotrypsinogen B [7]): 8.7 mM
